Test results from patent publication US20240058283A1, “THE MODE OF ACTION OF N-MeDCPA ON TRPC CHANNELS” (West Virginia University Board of Governors on Behalf of …, priority 2022, published 2024).
Read-outs that look alike come from different tables or passages of the source.

Columns and labels:
Format in all cases: cell-based
Mouse splenic monocytes = assay: Osteoclast differentiation of mouse splenic monocytes; conditions: 21 days of culture with RANKL+m-CSF; 100 nM ELP-004
Protocol: ELP-004 blocks TNF-α-induced osteoclast differentiation. Mouse splenic monocytes were induced to differentiate into osteoclasts. Results were obtained of osteoclast cells after 21 days of culture with RANKL+m-CSF alone or with the addition of 100 nM ELP-004. […] Thus, ELP-004 inhibits osteoclastogenesis.

TRPC7 = target: T1, TRPC7 (Homo sapiens, UniProt Q9HCX4); assay: OAG-induced Ca2+ entry in Fura2-loaded HEK293 cells overexpressing TRPC7
T1 construct: expressed in transfected cells; host or cells: HEK293 (transient transfection)
T1 sequence (Q9HCX4 1-862): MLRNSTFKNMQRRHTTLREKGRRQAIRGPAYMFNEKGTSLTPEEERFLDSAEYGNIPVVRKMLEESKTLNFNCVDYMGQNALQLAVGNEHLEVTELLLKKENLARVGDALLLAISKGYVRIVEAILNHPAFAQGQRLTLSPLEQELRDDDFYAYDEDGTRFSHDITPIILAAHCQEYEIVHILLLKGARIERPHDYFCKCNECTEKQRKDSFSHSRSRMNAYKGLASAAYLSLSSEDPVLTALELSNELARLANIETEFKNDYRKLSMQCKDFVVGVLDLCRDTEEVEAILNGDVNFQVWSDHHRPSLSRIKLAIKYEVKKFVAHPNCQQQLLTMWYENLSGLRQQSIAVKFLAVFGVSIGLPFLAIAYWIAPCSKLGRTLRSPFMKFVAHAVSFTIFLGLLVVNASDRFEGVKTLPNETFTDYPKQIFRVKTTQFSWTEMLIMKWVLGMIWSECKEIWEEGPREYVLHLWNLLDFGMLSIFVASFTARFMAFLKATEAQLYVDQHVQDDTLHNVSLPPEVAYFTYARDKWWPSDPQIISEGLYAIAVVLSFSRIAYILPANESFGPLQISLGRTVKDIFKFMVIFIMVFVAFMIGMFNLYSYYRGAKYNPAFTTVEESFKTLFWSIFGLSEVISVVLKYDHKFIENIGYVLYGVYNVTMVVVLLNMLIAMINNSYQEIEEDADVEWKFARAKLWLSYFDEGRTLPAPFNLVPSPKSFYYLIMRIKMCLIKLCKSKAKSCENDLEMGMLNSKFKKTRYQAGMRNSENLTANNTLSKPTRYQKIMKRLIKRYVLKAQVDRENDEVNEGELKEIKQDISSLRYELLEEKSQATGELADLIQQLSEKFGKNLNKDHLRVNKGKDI
Protocol: (§1) Inhibition of DAG-mediated TRPC activation. To determine if ELP-004 (N-MeDCPA) inhibits DAG-induced TRPC activation, HEK293 cells expressing TRPC3, TRPC6 or TRPC7 were loaded with Fura2 and incubated with ELP-004 (0 to 1 mM) for 10 minutes prior to challenging with 1-Oleoyl-2-acetyl-sn-glycerol (OAG), a membrane permeable form of diacylglycerol.
(§2) Cell Culture—HEK293 cells were grown in DMEM with 4.5 g/L glucose supplemented with 10% FBS and 1% Gentamycin (Full DMEM media; Thermo-Fisher Scientific, Waltham, MA) at 37° C. and 5% CO2. […]
TRPC activity assay—Cells grown on glass coverslips were incubated in a cation-safe buffer (107 mM NaCl, 7.2 mM KCl, 1.2 mM MgCl2, 11.5 mM Glucose, 20 mM HEPES-NaOH, 1 mM CaCl2), pH 7.2) and loaded with Fura2-acetoxymethylester (Fura2-AM; 2 μM) for 30 min at 24° C. as previously described^10,11. […] Ca^2+/Sr^2+ measurements were taken using a Leica DMI 6000B fluorescence microscope controlled by Slidebook software (Intelligent Imaging Innovations, Denver, CO). Fluorescence emission at 505 nm was monitored in response to excitation at alternating 340 nm and 380 nm wavelengths at a frequency of 0.67 Hz; intracellular Ca^2+ measurements are shown at 340/380 nm ratios obtained from groups of 35-45 single cells. […]

TRPC3 = target: T2, TRPC3 (Homo sapiens, UniProt Q13507); assay: OAG-induced Ca2+ entry in Fura2-loaded HEK293 cells expressing TRPC3; conditions: ELP-004 0 to 1 mM for 10 minutes before OAG, FIG. 1D, read-out: IC50, inhibition of OAG-induced Ca2+ entry
T2 construct: expressed in transfected cells
T2 sequence (Q13507 1-921): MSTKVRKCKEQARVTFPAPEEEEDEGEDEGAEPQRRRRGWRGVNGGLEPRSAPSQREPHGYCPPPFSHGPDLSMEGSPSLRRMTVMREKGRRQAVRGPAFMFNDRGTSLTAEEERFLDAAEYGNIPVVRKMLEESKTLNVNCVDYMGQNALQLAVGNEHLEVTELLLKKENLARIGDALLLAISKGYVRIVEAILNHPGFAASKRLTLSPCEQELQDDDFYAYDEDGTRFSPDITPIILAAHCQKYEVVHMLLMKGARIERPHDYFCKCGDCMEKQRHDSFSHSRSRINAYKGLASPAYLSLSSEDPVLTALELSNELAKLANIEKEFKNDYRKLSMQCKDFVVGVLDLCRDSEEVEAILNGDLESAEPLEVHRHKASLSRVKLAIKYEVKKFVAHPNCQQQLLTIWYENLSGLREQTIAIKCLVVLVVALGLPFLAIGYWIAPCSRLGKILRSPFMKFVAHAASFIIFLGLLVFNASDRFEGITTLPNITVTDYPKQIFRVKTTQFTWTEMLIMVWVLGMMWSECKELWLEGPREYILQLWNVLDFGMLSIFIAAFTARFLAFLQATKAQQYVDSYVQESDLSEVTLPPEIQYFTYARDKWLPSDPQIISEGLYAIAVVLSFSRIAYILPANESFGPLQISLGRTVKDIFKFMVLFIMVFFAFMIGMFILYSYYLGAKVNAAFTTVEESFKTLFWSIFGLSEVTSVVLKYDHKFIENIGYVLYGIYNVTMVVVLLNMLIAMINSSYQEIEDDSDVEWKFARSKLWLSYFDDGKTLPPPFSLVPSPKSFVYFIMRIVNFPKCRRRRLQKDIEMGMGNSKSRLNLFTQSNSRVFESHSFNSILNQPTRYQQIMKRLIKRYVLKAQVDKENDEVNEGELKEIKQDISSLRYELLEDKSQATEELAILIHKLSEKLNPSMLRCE
Protocol: as §1, §2
TRPC activity assay—Cells grown on glass coverslips were incubated in a cation-safe buffer (107 mM NaCl, 7.2 mM KCl, 1.2 mM MgCl2, 11.5 mM Glucose, 20 mM HEPES-NaOH, 1 mM CaCl2), pH 7.2) and loaded with Fura2-acetoxymethylester (Fura2-AM; 2 μM) for 30 min at 24° C. as previously described^10,11. […] Ca^2+/Sr^2+ measurements were taken using a Leica DMI 6000B fluorescence microscope controlled by Slidebook software (Intelligent Imaging Innovations, Denver, CO). Fluorescence emission at 505 nm was monitored in response to excitation at alternating 340 nm and 380 nm wavelengths at a frequency of 0.67 Hz; intracellular Ca^2+ measurements are shown at 340/380 nm ratios obtained from groups of 35-45 single cells.

What does the source list for CCC(=O)N(C)c1ccc(Cl)c(Cl)c1 [ELP-004, N-(3,4-dichlorophenyl)-N-methylpropanamide]?
development of multinucleated osteoclasts (Mouse splenic monocytes): inhibited development of multinucleated osteoclasts; IC50 (TRPC7; FIG. 5, TRPC O/E cells, OAG, Ca2+ present, read-out: TRPC7 IC50): 9 nM; IC50 (TRPC7; HEK293 expressing TRPC7, ELP-004 0 to 1 mM for 10 minutes before OAG, FIG. 1D, read-out: IC50, inhibition of OAG-induced Ca2+ entry): 1000 to 2000 nM; IC50 (TRPC3): 1000 to 2000 nM
